Results on 27 compounds are retold here after patent US20240307409A1, “ARGININE METHYLTRANSFERASE INHIBITOR AND USE THEREOF” (Cytosinlab Therapeutics Co., Ltd., priority 2021, published 2024).

One assay deals with PRMT1 (Homo sapiens, UniProt Q99873). The assay can be described thus: PRMT1 enzyme activity test. The format is biochemical. The conditions noted are these: 0.5 nM PRMT1, 3H-SAM, peptide. How it is done: PRMT1 enzyme activity test were performed in a buffer prepared on the same day 5 consisting of 10 mMTirs-HCl (pH=8.0), 0.01% Tween-20 and 1 mM DTT. The compounds were prepared to the highest inhibitor concentration ultimately required in the 100× reaction with 100% DMSO and then transferred to one well of a 384-well Echo plate (Echo-eligible 384-well polypropylene microplates 2.0, transparent, flat-bottomed) and sequentially diluted in the next well with a 3-fold dilution of 100% DMSO, and so on, with a total of 10 concentrations based on Precision. 100% DMSO was added to two empty wells to serve as control well without compound and control well without enzyme in the same 384-well Echo plate. 250 nL of compound was transferred from each well of the 384-well Echo plate to a 384-well assay plate (384-well polypropylene storage microplate) via the Echo 550 liquid processor. For wells with compounds and control well without compound, a mixture (15 uL) containing PRMT1 enzyme was added to the 384-well assay plate. For control wells without enzyme, the mixture containing the assay buffer (15 uL) was added instead. The compounds were allowed to incubate with PRMT1 for 15 minutes at room temperature, and then a mixture containing ^3H-SAM and peptide (10 uL) was added to start the reaction (final volume=25 uL). The final concentrations of the components were as follows: 0.5 nM for PRMT1, 0.25 uM for ^3H-SAM, 0.1 uM for the peptide, and 1% DMSO. After 120 min of incubation, the assay was terminated by the addition of non-radiolabeled SAM (5 uL) to a final concentration of 125 uM, which diluted 3H-SAM to a level at which its incorporation into the peptide substrate was no longer detected. 25 μL of the reaction solution from the 384-well assay plate was then transferred to a 384-well detection plate (Streptavidin FlashPlate HTS PLUS, high volume, 384 wells). The biotinylated peptide was allowed to bind to the surface of the antibiotic protein streptavidin for at least 60 minutes at room temperature. The Flashplate was then washed three times with 0.1% Tween-20 in a BioTek plate washer. Plates were read on a microplate counter (MicroBeta2) to measure the amount of ^3H-labeled peptide bound to the surface of the detection plate, measured in counts per minute (cpm).
PRMT1, sequence (Q99873 whole entry): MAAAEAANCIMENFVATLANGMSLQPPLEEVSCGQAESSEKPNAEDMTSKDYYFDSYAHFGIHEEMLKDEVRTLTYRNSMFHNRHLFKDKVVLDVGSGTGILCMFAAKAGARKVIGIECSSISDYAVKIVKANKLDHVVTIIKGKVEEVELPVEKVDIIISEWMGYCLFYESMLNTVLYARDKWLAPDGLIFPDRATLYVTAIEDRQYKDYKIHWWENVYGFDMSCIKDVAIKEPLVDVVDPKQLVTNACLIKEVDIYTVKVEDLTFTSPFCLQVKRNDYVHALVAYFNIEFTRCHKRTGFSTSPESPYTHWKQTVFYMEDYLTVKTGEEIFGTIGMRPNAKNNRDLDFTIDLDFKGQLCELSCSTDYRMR
The raw data were copied from the Reader and the inhibition values were calculated in Excel by Equation (1), Equation (1): Inh %=(CPMmax−CPMcmpd)/(CPMmax−CPMmin)*100, wherein the Max signal was obtained from the enzyme-substrate interaction and the Min signal was obtained from the substrate. IC50 values were obtained by fitting the data through equation (2) using XLFit add-in for Excel version […]. Equation (2): Y=Bottom+(Top-Bottom)/(1+((IC50/X)[…])), wherein, Y represents inhibition percentage and X represents compound concentration.

Another assay deals with Toledo cells. The assay can be described thus: Toledo cell proliferation inhibition assay. The assay is classed as cell-based. Conditions: six-day assay, CellTiter-Glo. The method, then:
• A. Purpose: to determine the effects of compounds on Toledo cells through a six-day cell proliferation assay. • B. Reagents and materials: • 1. Cell culture medium: RPMI 1640+10% FBS • 2. 384-well cell culture plate (Corning, item #3764) • 3. 0.4% Taipan Blue Staining Solution (Thermo Fisher, item #T10282) • 4. cell counting plate (Thermo Fisher, item #C10228) • 5. 50 ml reagent reservoir (Corning, item #4870) • 6. 50 ml conical sterile polypropylene centrifuge tube (Thermo Fisher, item #339653) • 7. Automatic cell counter (Thermo Fisher, item #AMQAX1000) • 8. CellTiter-Glo Luminescent Cell Viability Detection Reagent (Promega, item #G7572) • 9. SpectraMax i3x Multi-Mode Enzyme Labeling Instrument (Megaman Molecular Instruments, item #5024062) • C. Experimental method • 1. Resuspending the cells with a pipette. • 2. 0.4% Taipan blue staining solution and Toledo cells were mixed in equal proportion, and the cells were counted using an automatic cell counter. • 3. Toledo cells were diluted to a final concentration of 2000 cells per well and transferred to a 50 ml reagent reservoir. • 4. Diluted Toledo cells were added to a 384-well cell culture plate, 40 ul per well. • 5. The cells were shortly centrifuged and settled. • 6. The cells were incubated in a 37° C., 5% CO2 cell culture incubator. • 7. The substrate in the CellTiter-Glo Luminescent Cell Viability Detection Reagent was mixed with the solution. • 8. After six days, the 384-well cell culture plate was taken from the incubator and 20 ul of configured CellTiter-Glo reagent was added to each well. • 9. 384-well cell culture platewasmixed in an orbital shaker for 30 minutes. • 10. Signal of luminescence was detected with a SpectraMax i3x multi-mode enzyme labeling instrument.

The term IC50 denotes the concentration that gives 50% inhibition. Consider `CNCCN(C)Cc1nc(C)ccc1C1CCc2cc(F)c(F)cc2CC1` [P036], for which the IC50 is less than 0.05 µM against PRMT1 and less than 1 µM in the assay on Toledo cells (Homo sapiens, Toledo, 144 h).
With `CNCCN(C)Cc1ccc(C)nc1C1CCc2cc(F)c(F)cc2CC1` [P038], the concentration for half-maximal inhibition (IC50) on PRMT1 is less than 0.05 µM; in the assay with Toledo cells (Homo sapiens, Toledo, 144 h), less than 1 µM.
`CNCCN(C)Cc1ccccc1C1CCC2(CC1)CC(C)(C)CO2` (stereo not drawn) [P040]: the IC50 is less than 0.05 µM on PRMT1 and less than 1 µM in the assay with Toledo cells.
For the compound `CNCCN(C)Cc1ccccc1C1=CCC2(CC1)CC(C)(C)CO2` (stereo not drawn) [P042], the IC50 at PRMT1 is less than 0.05 µM; in the assay with Toledo cells (Homo sapiens, Toledo, 144 h) it was less than 1 µM.
Taken in the same sequence, the figures for `CNCCN(C)Cc1nc2ccccc2cc1C1CCN(c2cccc(C)c2)CC1` [P046] were less than 0.05 µM and 1 to 5 µM.
Taken in the same sequence, the figures for `CNCCN(C)Cc1ccc2ncccc2c1C1=CCN(c2cccc(C)c2)CC1` [P047] were less than 0.05 µM and 1 to 5 µM.
In the case of `CCOC[C@H]1CC[C@@H](c2ccccc2CN(C)CCNC)CC1` [P048], the IC50 against PRMT1 was less than 0.05 µM; in the assay with Toledo cells (Homo sapiens, Toledo, 144 h) it was less than 1 µM.
The corresponding values for `CNCCN(C)Cc1ccccc1C1=CCC2(CCCCO2)CC1` (stereo not drawn) [P055] are less than 0.05 µM and 1 to 5 µM.
Taken in the same sequence, the figures for `CNCCN(C)Cc1ccc(C)nc1C1CCN(c2cc(C)cc(Cl)c2)CC1` [P058] were less than 0.05 µM and less than 1 µM.
The corresponding values for `CNCCN(C)Cc1nc(C)ccc1C1CCN(CCc2ccccc2)CC1` [P059] are less than 0.05 µM and 1 to 5 µM.
Take `CNCCN(C)Cc1ccccc1C1=CCC(OC(C)C)CC1` (stereo not drawn) [P060]: the IC50 against PRMT1 is less than 0.05 µM; in the assay with Toledo cells (Homo sapiens, Toledo, 144 h) it was less than 1 µM.
The corresponding values for `CNCCN(C)Cc1ccc(C)nc1C1CCN(c2cccc(C(F)F)c2)CC1` [P061] are less than 0.05 µM and less than 1 µM.
The corresponding values for `CNCCN(C)Cc1ccc(C)nc1C1CCN(c2cc(C)cc(C)c2)CC1` [P063] are less than 0.05 µM and less than 1 µM.
Consider `CNCCN(C)Cc1ccc(C)nc1C1CCN(c2ccc(F)c(Cl)c2)CC1` [P064], for which the IC50 against PRMT1 was less than 0.05 µM; in the assay with Toledo cells (Homo sapiens, Toledo, 144 h), less than 1 µM.
The corresponding values for `CNCCN(C)Cc1ccc(C)nc1C1CCN(c2ccc(F)c(C)c2)CC1` [P065] are less than 0.05 µM and less than 1 µM.
Taken in the same sequence, the figures for `CNCCN(C)Cc1ccc(C)nc1C1CCN(c2cc(C)cc(F)c2)CC1` [P066] were less than 0.05 µM and less than 1 µM.
The corresponding values for `CNCCN(C)Cc1ccc(C)nc1C1CCN(c2cc(C)ccc2F)CC1` [P067] are less than 0.05 µM and less than 1 µM.
On to `CNCCN(C)Cc1ncccc1C1CCN(c2cccc(C(F)(F)F)c2)CC1` [P068], for which the IC50 against PRMT1 was less than 0.05 µM; with Toledo cells (Homo sapiens, Toledo, 144 h), 1 to 5 µM.
The corresponding values for `CNCCN(C)Cc1ccc(C(C)N)cc1C1CCc2cc(F)c(F)cc2CC1` (stereo not drawn) [P070] are less than 0.05 µM and less than 1 µM.
Taken in the same sequence, the figures for `CNCCN(C)Cc1ncccc1C1CCN(c2cccc(CN3CCCC3)c2)CC1` [P071] were less than 0.05 µM and 1 to 5 µM.
Taken in the same sequence, the figures for `CNCCN(C)Cc1ccc(Cl)nc1C1CCN(c2cccc(C)c2)CC1` [P072] were less than 0.05 µM and less than 1 µM.
As for `CNCCN(C)Cc1ccc(C)nc1C1CCN(c2cccc(Cl)c2)CC1` [P073], the IC50 was less than 0.05 µM against PRMT1 and less than 1 µM in the assay on Toledo cells (Homo sapiens, Toledo, 144 h).
Taken in the same sequence, the figures for `CNCCN(C)Cc1ccc(F)cc1C1CCN(c2cccc(C(C)(C)O)c2)CC1` [P076] were less than 0.05 µM and 1 to 5 µM.
Taken in the same sequence, the figures for `CNCCN(C)Cc1ncccc1C1CCN(Cc2cccc(C)c2)CC1` [P077] were less than 0.05 µM and 1 to 5 µM.
For `CNCCN(C)Cc1ncccc1C1CCN(c2cc(C)cc(CN(C)C)c2)CC1` [P082], the IC50 was less than 0.05 µM against PRMT1 and 1 to 5 µM in the assay on Toledo cells (Homo sapiens, Toledo, 144 h).
Taken in the same sequence, the figures for `CNCCN(C)Cc1ccc(C)nc1C1CCN(c2ccc(F)cc2)CC1` [P086] were less than 0.05 µM and 1 to 5 µM.
The corresponding values for `CNCCN(C)Cc1ccc(F)cc1C1CCN(C(=O)Cc2ccccc2)CC1` [P087] are less than 0.05 µM and 1 to 5 µM.
